Results: publication PMC8129988 (Inorganic Chemistry Frontiers, 2021)
Structures can show the parent of a compound that is named as a salt.

Columns and labels:
Assay type in all cases: cell-based, human
[1] = system: UM-UC-14 cells; experiment: MTT vitality assay, 72 h; conditions: TFA up to 25 μM
Protocol: The sensitizing effect in this cell model was more pronounced for Co(acac)2LPonvs.Co(Meacac)2LPon reflecting the differences in the reduction potentials. Purification of the novel compounds was performed in the presence of 0.1% TFA, leading to the respective TFA salts.
As mentioned above, two stereoisomers of Co(acac)2LPon could be isolated. To clarify, whether there are differences in their anticancer activity, they were analyzed (in addition to the isomeric mixture) in UM-UC-14 cells by MTT assay. […] Accordingly, values for the isomeric mixture positioned intermediate. As expected, both stereoisomers and the isomeric mixture were distinctly activated by hypoxic conditions. The moderately higher activity of isomer 1 remained also under hypoxic conditions (Fig. S12A ^†). […]
Cells were seeded (3–7 × 10^4 cells per well) in 96-well plates and after 24 h recovery treated with increasing concentrations of compounds in triplicates. After 72 h drug exposure under normoxic or hypoxic cell culture conditions (0.1% O2) (ProOx Model C21 system, BioSpherix), the proportion of viable cells was determined by 3-(4,5-dimethylthiazol-2-yl)-2,5-diphenyltetrazolium bromide (MTT)-vitality assay (EZ4U, Biomedica, Vienna, Austria) or by luminescence assay based on adenosine triphosphate quantification (CellTiter-Glo, Promega, Madison, Wisconsin) following the manufacturer's recommendations. […]

[2] = system: FGFR3-driven UM-UC-14 urothelial cancer cell model; experiment: colony formation assay, 5 d; conditions: normoxic
Protocol: In order to investigate the impact of long-term oxygen restriction, clonogenic assays were performed in the FGFR3-dependent UM-UC-14 cell model (Fig. 9C).
UM-UC-14 cells were seeded at low densities of 3 × 10^3 cells per well in 24-well plates in 500 μL and after 24 h recovery treated with 100 μL of increasing concentrations of compounds in duplicates. Following drug exposure time of 5 days under normoxic or hypoxic (0.1% O2) culture conditions, cells were washed with phosphate-buffered saline (PBS), fixed with ice-cold methanol for 30 min at 4 °C and stained with crystal violet. Digital photographs were taken using a Nikon D3200 camera and processed with ImageJ software. For quantification, crystal violet was eluted using 2% sodium dodecyl sulfate (SDS) and color absorbance was measured at 560 nm at the Tecan infinite 200Pro (Zurich, Switzerland). Values are given in arbitrary units (a.u.) as mean ± SD normalized to untreated control.

[3] = system: p-ERK1/2 and p-S6 in K-562 cells; experiment: western blot of downstream signalling, 12 h; conditions: K-562, 12 h, western blot
Protocol: Fig. 10 Impact of the cobalt(III) complexes on the ERK1/2 and S6 under normoxic and hypoxic conditions. K-562 cells were treated with the compounds, after 12 h cell lysates were prepared and protein expression as well as phosphorylation levels of downstream pathways (p-ERK1/2 and p-S6) analyzed by western blotting. One representative experiment out of three is shown. The ratio of phosphorylated to total protein is given between the respective lanes.
K-562 cells were plated (5 × 10^5 cells per well) in 6-well plates and allowed to recover for 24 h. Subsequently, the cells were treated with the drugs in different concentrations. After 12 h cells were harvested, proteins were isolated, resolved by sodium dodecyl sulfate polyacrylamide gel electrophoresis (SDS/PAGE), and transferred onto a polyvinylidene difluoride membrane for western blotting. The following antibodies were used: ERK1/2 (p44/42) rabbit monoclonal antibody (mAb) (137F5, #4695), phospho-ERK1/2 rabbit mAb (Thr202/Tyr204) (20G11, #4376), phospho-S6 rabbit pAb (Ser240/244, #2215) (Cell Signaling Technology, Beverly, MA, USA), S6 mouse mAb (C-8. #sc-74459) (Santa Cruz Biotechnology, TX, USA) and β-actin mouse mAb (#A5441, Sigma). All primary antibodies were used in 1 : 1000 dilutions (in Tris-buffered saline containing 0.1% Tween20 (TBST) + 3% bovine serum albumin (BSA)). Secondary goat anti-mouse-IgG (Fc specific)-peroxidase antibody (#A0168, Sigma) and horseradish peroxidase(HRP)-labeled mouse anti-rabbit IgG (#sc-2357, Santa Cruz Biotechnology) were used at working dilutions of 1 : 10 000 (in TBST + 1% BSA).

| Structure (SMILES) | impact on cell viability [1] | inhibition of clonogenic cell growth [2] [%] | activity on ERK1/2 and S6 phosphorylation, normoxic vs hypoxic [3] |
| --- | --- | --- | --- |
| O=C(O)C(F)(F)F [TFA, trifluoroacetic acid] | no impact on cell viability |  |  |
| Cc1ccc(C(=O)Nc2ccc(CN3CCN(C)CC3)c(C(F)(F)F)c2)cc1C#Cc1cnc2cccnn12 [ponatinib, reference compound] |  | 95 | equally active under the two oxygen conditions |
